Like-named read-outs stand apart in the source and are kept apart here.
Experiments:
[1] = test system: panelists; assay: Sensory panel paired comparison of lemon-lime beverages with Reb M; type: in vivo; conditions: 1% in a lemon-lime matrix containing 475 ppm rebaudioside M
Protocol: (§1) The ingredients were dissolved in filtered water to constitute a syrup, then the final beverage was made by weighing the appropriate syrup amount and adding carbonated water using a ratio of 1-part syrup+5.4 parts carbonated water to target a carbonation of 3.8 volumes of CO2. Final beverages were filled in 300 ml glass bottles and served cold (4° C.). A sensory panel was provided with the D-glucose (@1%) containing beverage of Table 1 and the control shown therein. The beverages were evaluated blindly by six or seven panelists. Samples were coded and randomly presented to the panelists. Panelists were instructed to eat an unsalted cracker and rinse the mouth with water before and in between the samples. For each sample, panelists were instructed to taste, then write down their evaluation comments in paired comparison test between control and prototypes. Panelists ranked higher the sample that had higher sweet intensity, fast sweet onset, more sugar like mouthfeel, less sweet linger, less bitter and overall best tasting. […] Samples were coded and randomly presented to the panelists. Panelists were instructed to eat an unsalted cracker and rinse the mouth with water before and in between the samples. […]

[2] = test system: panelists; assay: Sensory panel paired comparison of lemon-lime beverages with Siamenoside I; type: in vivo; conditions: 2% in a lemon-lime matrix containing 600 ppm Siamenoside I
Protocol: as §1, with “Table 4” for “Table 1”

[3] = test system: human sense of taste; conditions: cited from earlier work
[4] = test system: human sense of taste; conditions: cited from earlier work; remark: listed apart in the source
[5] = test system: taste panelists; conditions: background statement; cited from earlier work
[6] = lowest known concentration perceivable as sweet, ppm equivalent of the mM value
[7] = lowest known concentration perceivable by the human sense of taste as sweet

Row | Compound | taste modulation (sensory testing, FIG. 1 and 2) [1] | taste modulation (sensory testing, FIG. 3 and 4) [2] | sweetness recognition threshold concentration [3, 6] | sweetness recognition threshold concentration [3, 7] | detection threshold concentration ([4]; lowest known concentration perceivable by the human sense of taste) | detection threshold concentration ([4]; lowest known concentration perceivable, ppm equivalent of the mM value) | maximal sucrose equivalence [5]
1 | O=C[C@H](O)[C@@H](O)[C@H](O)[C@H](O)CO [D-glucose] | effective taste modulator | effective taste modulator | about 7386 ppm | about 41±6 mM | about 13 mM | about 2342 ppm | 
2 | O=C[C@@H](O)[C@H](O)[C@@H](O)[C@@H](O)CO [L-glucose] | effective taste modulator | effective taste modulator | about 5765 ppm | about 32±7 mM |  |  | 
3 | C=C1C[C@@]23CC[C@H]4[C@@](C)(CCC[C@@]4(C)C(=O)O[C@@H]4O[C@H](CO)[C@@H](O)[C@H](O)[C@H]4O)[C@@H]2CC[C@]1(O[C@@H]1O[C@H](CO)[C@@H](O)[C@H](O[C@@H]2O[C@H](CO)[C@@H](O)[C@H](O)[C@H]2O)[C@H]1O[C@@H]1O[C@H](CO)[C@@H](O)[C@H](O)[C@H]1O)C3 [rebaudioside A] |  |  |  |  |  |  | ≤ 10%
4 | C=C1C[C@@]23CC[C@H]4[C@@](C)(CCC[C@@]4(C)C(=O)O[C@@H]4O[C@H](CO)[C@@H](O)[C@H](O[C@@H]5O[C@H](CO)[C@@H](O)[C@H](O)[C@H]5O)[C@H]4O[C@@H]4O[C@H](CO)[C@@H](O)[C@H](O)[C@H]4O)[C@@H]2CC[C@]1(O[C@@H]1O[C@H](CO)[C@@H](O)[C@H](O[C@@H]2O[C@H](CO)[C@@H](O)[C@H](O)[C@H]2O)[C@H]1O[C@@H]1O[C@H](CO)[C@@H](O)[C@H](O)[C@H]1O)C3 [rebaudioside M] |  |  |  |  |  |  | greater than 10%

From patent US20260130404A1, “SWEETNESS AND TASTE IMPROVEMENT OF NON-SUCROSE SWEETENERS WITH D-SUGARS OR L-SUGARS” (The Coca-Cola Company, priority 2022, published 2026)
